Measured values published in patent publication US20100255580A1, “Differentiation of Human Embryonic Stem Cells” (LIFESCCAN, INC., priority 2007, published 2010).

Tested on: H9 embryonic stem cells
Type: cell-based, human
Details: low serum, on MEFS
Procedure: Controls for each group included cells plated on […]-coated dishes and cultured in MEF-conditioned medium or cells plated on MEFs and cultured in ES medium. All groups contained three biological replicates and each biological replicate was repeated on two separate gene chips.
Sample preparation, hybridization, and image analysis were performed according to the Affymetrix Human Genome U133 Plus 2.0 Array. Following normalization and a log transformation, data analysis was performed using OmniViz® software (MA) and […] (VizXLabs, WA). Significant differences in gene expression between the samples were evaluated using analysis of variance and an F-test with adjusted P-value (Benjamini and
Hochberg correction) of ≦b 0.05. Only genes with a present call in at least one group were included in the analysis.

Substance: Activin A: a member of the TGFβ superfamily; R&D Systems; Group 2 = Activin A (100 ng/ml)
- log intensity, bHLH factor Hes4 (LOC57801): 2.4
- log intensity, beta3GalNAcT-1 mRNA for globoside synthase, clone: type 2: −0.0984
- log intensity, bone morphogenetic protein 2 (BMP2): 5.029
- log intensity, bone morphogenetic protein 5 (BMP5): 0.6148
- log intensity, bromodomain and PHD finger containing, 3: 0.3694
- log intensity, c-mer proto-oncogene tyrosine kinase (MERTK): 3.617
- log intensity, cDNA FLJ11390 fis, clone HEMBA1000561: 0.3644
- log intensity, cDNA FLJ13221 fis, clone NT2RP4002075: 1.082
- log intensity, cDNA FLJ13392 fis, clone PLACE1001280: 1.169
- log intensity, cDNA FLJ13810 fis, clone THYRO1000279: −0.8532
- log intensity, cDNA FLJ30081 fis, clone BGGI12000693: 1.125
- log intensity, cDNA FLJ34035 fis, clone FCBBF2004788: −2.008
- log intensity, cDNA FLJ36116 fis, clone TESTI2022338: 6.155
- log intensity, cDNA: FLJ22731 fis, clone HSI15841: 2.241
- log intensity, cDNA: FLJ22808 fis, clone KAIA2925: 2.414
- log intensity, cDNA: FLJ23067 fis, clone LNG04993: 0.8825
- log intensity, calmegin (CLGN): 3.111
- log intensity, cardiac ankyrin repeat protein (CARP): 1.987
- log intensity, cartilage linking protein 1: 0.9872
- log intensity, caspase-like apoptosis regulatory protein 2 (clarp): 5.2167
- log intensity, chemokine receptor CXCR4 mRNA: 5.669
- log intensity, cleft lip and palate associated transmembrane protein 1, clone MGC: 10593: 0.5567
- log intensity, clone FLC1492 PRO3121 mRNA: −3.392
- log intensity, clone HB-2 mRNA sequence: 1.252
- log intensity, clone IMAGE: 3509274, mRNA, partial cds: 0.7945
- log intensity, clone IMAGE: 4047715, mRNA: 1.527
- log intensity, clone MGC: 14801: 1.511
- log intensity, clone MGC: 24252 IMAGE: 3932604: 1.593
- log intensity, clone TUA8 Cri-du-chat region mRNA: 1.497
- log intensity, collagen, type V, alpha 1: 1.666
- log intensity, complement component 5 (C5): 1.596
- log intensity, core histone macroH2A2.2 (MACROH2A2): 3.662
- log intensity, cystatin C (amyloid angiopathy and cerebral hemorrhage) (CST3): 3.52
- log intensity, deiodinase, iodothyronine, type III (DIO3): 4.229
- log intensity, dickkopf (Xenopus laevis) homolog 1 (DKK1): 1.09
- log intensity, dual specificity phosphatase 4, clone MGC: 3713: 5.601
- log intensity, dynein, axonemal, light polypeptide 4 (DNAL4): 1.8494
- log intensity, dystrophin (muscular dystrophy, Duchenne and Becker types) (DMD), transcript variant Dp427p2: 3.044
- log intensity, ectodermal dysplasia 1, anhidrotic (ED1): 3.078
- log intensity, elongation of very long chain fatty acids (FEN1Elo2, SUR4Elo3, yeast)-like 2 (ELOVL2): 1.508
- log intensity, endothelin receptor type A (EDNRA), mRNA: 3.552
- log intensity, endothelin receptor type A (r1027): 1.954
- log intensity, enolase 2, (gamma, neuronal) (ENO2): 3.926
- log intensity, eomesodermin (Xenopus laevis) homolog (EOMES): 4.898
- log intensity, erythrocyte membrane protein band 4.9 (dematin) (EPB49): 0.9238
- log intensity, fasciculation and elongation protein zeta 1 (zygin I) (FEZ1), transcript variant 1: 2.203
- log intensity, forkhead box F2 (FOXF2): −1.115
- log intensity, gelsolin (amyloidosis, Finnish type) (GSN): 4.45
- log intensity, glucose-6-phosphate transporter (G6PT) gene, G6PT-Dt allele: 0.4077
- log intensity, glutathione S-transferase A2 (GSTA2): −0.4221
- log intensity, glycoprotein M6A: 2.3278
- log intensity, guanylate cyclase activator 1B (retina) (GUCA1B): 0.685
- log intensity, heparan sulfate proteoglycan 2 (perlecan): −0.9721
- log intensity, hexabrachion (tenascin C, cytotactin) (HXB): 2.854
- log intensity, high mobility group protein-R: 0.09529
- log intensity, hypothetical protein BC017868 (LOC159091): 0.4016
- log intensity, hypothetical protein DKFZp434F0318: 0.3947
- log intensity, hypothetical protein DKFZp434F2322: 1.421
- log intensity, hypothetical protein DKFZp564B052: 2.003
- log intensity, hypothetical protein FLJ10312: 4.892
- log intensity, hypothetical protein FLJ11155: −0.7126
- log intensity, hypothetical protein FLJ11560: 1.807
- log intensity, hypothetical protein FLJ12538 similar to ras-related protein RAB17: 4.734
- log intensity, hypothetical protein FLJ12666 (r758): 1.405
- log intensity, hypothetical protein FLJ12666 (r998): 4.028
- log intensity, hypothetical protein FLJ12838: 3.152
- log intensity, hypothetical protein FLJ21195 similar to protein related to DAC and cerberus: 0.764
- log intensity, hypothetical protein FLJ22471: 3.1349
- log intensity, hypothetical protein FLJ23091: 3.042
- log intensity, hypothetical protein FLJ23514: 5.247
- log intensity, hypothetical protein FLJ32835: 3.947
- log intensity, hypothetical protein MGC2865, clone MGC: 20246: −1.506
- log intensity, insulin-like growth factor binding protein 6 (IGFBP6): 3.304
- log intensity, keratin 19 (KRT19): 5.919
- log intensity, kidney-specific membrane protein NX-17: 3.45
- log intensity, lipase mRNA: 0.5585
- log intensity, lymphocyte antigen 6 complex, locus E (LY6E): 4.926
- log intensity, mRNA for KIAA0876 protein: 0.07325
- log intensity, mRNA for KIAA1161 protein: 1.981
- log intensity, mRNA for MSX-2: 1.945
- log intensity, mRNA for protein-tyrosine kinase: 1.042
- log intensity, mRNA; cDNA DKFZp434E082: 2.943
- log intensity, mRNA; cDNA DKFZp434K0621: 2.214
- log intensity, mRNA; cDNA DKFZp434P228: 3.113
- log intensity, mRNA; cDNA DKFZp547H236: 2.081
- log intensity, mRNA; cDNA DKFZp564K1672: 6.335
- log intensity, mRNA; cDNA DKFZp586G2120: 0.523
- log intensity, mRNA; cDNA DKFZp586L0120: 1.28
- log intensity, mRNA; cDNA DKFZp762H185: 3.792
- log intensity, mandaselin long form: 1.2296
- log intensity, matrix metalloproteinase 15 (membrane-inserted) (MMP15): 1.8336
- log intensity, microseminoprotein, beta-(MSMB): 0.1699
- log intensity, mitogen-activated protein kinase 10 (MAPK10): 2.286
- log intensity, nuclear factor of kappa light polypeptide gene enhancer in B-cells inhibitor, alpha: 5.478
- log intensity, nuclear receptor subfamily 0, group B, member 1 (NR0B1) (r534): 1.279
- log intensity, nuclear receptor subfamily 0, group B, member 1 (NR0B1) (r1079): 3.298
- log intensity, nudix (nucleoside diphosphate linked moiety X)-type motif 4: 5.689
- log intensity, olfactory receptor, family 52, subfamily A, member 1 (OR52A1): 0.6365
- log intensity, oxoglutarate dehydrogenase (lipoamide) (OGDH): −0.3853
- log intensity, partial LHX9 gene for LIM-homeobox 9, 3UTR: −0.1342
- log intensity, partial mRNA for putative nuclear factor: 2.679
- log intensity, phosphatidylinositol-4-phosphate 5-kinase, type I, beta (PIP5K1B): 2.467
- log intensity, phosphofructokinase, liver (PFKL): 2.704
- log intensity, pilin-like transcription factor (PILB): 4.382
- log intensity, pleiomorphic adenoma gene-like 1: 0.2215
- log intensity, plexin A2: 2.742
- log intensity, polycythemia rubra vera 1; cell surface receptor (PRV1): 0.9374
- log intensity, porcupine (MG61): 3.681
- log intensity, protease, serine, 4 (trypsin 4, brain): 3.359
- log intensity, protein S (alpha) (PROS1): 1.7883
- log intensity, protocadherin 10: 2.986
- log intensity, putative 47 kDa protein (r448): 1.052
- log intensity, putative 47 kDa protein (r770): 0.8617
- log intensity, putative sterol reductase SR-1 (TM7SF2): 2.478
- log intensity, ras homolog gene family, member B: 0.07189
- log intensity, receptor tyrosine kinase-like orphan receptor 2 (ROR2): 3.056
- log intensity, regulator of G protein signalling 5 (RGS5): 3.951
- log intensity, ret finger protein-like 2 (RFPL2): 0.5039
- log intensity, secreted apoptosis related protein 2 (SARP2): 5.743
- log intensity, secreted frizzled-related protein 1: 4.218
- log intensity, sialyltransferase (STHM): 1.503
- log intensity, signal transducer and activator of transcription 3 (acute-phase response factor): 0.5602
- log intensity, singed (Drosophila)-like (sea urchin fascin homolog like) (SNL): 5.254
- log intensity, sodium dependent phosphate transporter isoform NaPi-IIb: 0.232
- log intensity, solute carrier (SLC25A18): −1.1
- log intensity, solute carrier family 9 (sodiumhydrogen exchanger), isoform 5 (SLC9A5): 1.196
- log intensity, stanniocalcin 1 (STC1), mRNA: 5.28
- log intensity, stanniocalcin 1 (r1113): 5.701
- log intensity, testican 3 (HSAJ1454): 1.551
- log intensity, testis enhanced gene transcript (BAX inhibitor 1): 1.317
- log intensity, thyrotropin-releasing hormone (TRH): −0.2584
- log intensity, transcription factor 2, hepatic; LF-B3; variant hepatic nuclear factor (TCF2), transcript variant a: 2.543
- log intensity, transcriptional activator of the c-fos promoter (CROC4): 3.225
- log intensity, transmembrane tyrosine kinase mRNA: 1.932
- log intensity, tropomodulin, clone MGC: 3643: 1.464
- log intensity, tryptase, alpha: 3.764
- log intensity, tudor repeat associator with PCTAIRE 2: 3.275
- log intensity, tyrosine 3-monooxygenasetryptophan 5-monooxygenase activation protein, eta polypeptide (r705): 4.608
- log intensity, tyrosine 3-monooxygenasetryptophan 5-monooxygenase activation protein, eta polypeptide (r966): 4.926
